Consider two compounds from patent US8367659B2, “Oxazinyl isoflavonoid compounds, medicaments and use” (Marshall Edwards, Inc., priority 2007, dated 2013).

One assay relates to B cells. In words: B cell proliferation (LPS-stimulated mouse splenocytes, MTT). Format: cell-based, Skh-1:HR 1 (hairless) mice. To be noted: 10 μM, 3 days. As for the experimental part:
Male Skh-1:HR 1 (hairless) mice, approximately six weeks old were killed by cervical dislocation. Single cell suspensions were made from the spleen and erythrocytes were lysed in buffer (0.14 M NH4Cl, 17 mM Tris, pH 7.2). The remaining splenocytes were cultured in RPMI-1640 (Gibco) supplemented with 10% (v:v) FBS, 200 mM L-glutamine, penicillin/streptomycin and […] 2-mercaptoethanol. Splenocytes were added to quadruplicate wells containing either concanavalin A (ConA, Sigma-Aldrich—0.4 μg/well), LPS (Sigma-Aldrich—1 μg/well) or no mitogen, as well 10 μM of test compound in DMSO. Samples were analysed after 3 days incubation at 37° C. in 5% CO2 in air. Methylthiazoletetrazolium (MTT) is bioreduced by viable cells into a coloured formazan product that is soluble in DMSO. Thus the quantity of formazan product is directly proportional to the number of living cells in culture, and can be measured using a spectrophotometer at 570 nm. MTT was added to each well, incubated for a further 4 hrs and then colour developed with 0.04 N HCl in isopropanol. Culture supernatants were stored after collection at −80° C. and analysed by ELISA (BD Biosciences) for IFN-γ (a Th-1 cytokine) and for T cells alone, IL-6 (a Th-2 cytokine).

Assay [1] concerns TXB2 synthesis in RAW 264.7 murine macrophages. In words: LPS-induced TXB2 synthesis in RAW 264.7 murine macrophages. Format: cell-based, mouse. To be noted: 10 μM; relative to vehicle alone; FIG. 4. The procedure:
(§1) The mouse macrophage cell line RAW 264.7 was cultured in DMEM supplemented with foetal calf serum (FCS), […] glutamine and 50 U/ml penicillin/streptomycin. Cells were treated with either test compound (in 0.025% DMSO) or vehicle alone, and added one hour before 50 ng/ml LPS. After incubation for 24 h, culture media was collected for PGE2 or TXB2 measurement by ELISA (Cayman Chemical), and TNFα measurement using an ELISA (Becton Dickinson). Test compounds were examined a concentration of 10 μM. […] Consequently, to assess the effect of test compounds on various analytes, cell viability was taken into consideration with the use of the formula: Actual effect of test compound=measured effect−(effect on cell viability×measured effect)

Assay [2] deals with PGE2 synthesis in RAW 264.7 murine macrophages. In words: LPS-induced PGE2 synthesis in RAW 264.7 murine macrophages. Format: cell-based, mouse. To be noted: 10 μM; relative to vehicle alone; FIG. 3. As for the experimental part: as §1
The next assay concerns VCAM. Nature of the assay: TNFα-induced VCAM expression in human arterial endothelial cells (ELISA). Format: cell-based. The conditions noted are these: HAEC; 10 μM found most appropriate for comparing. The procedure: Inhibition of TNFα-stimulated endothelial cell activation by compounds was assessed by measuring surface expression of cell adhesion molecules with an ELISA method. Human arterial endothelial cells (HAEC) in growth medium (Cell Applications Inc.) were seeded into 96-well plates at a density of 10,000 cells per well. Plates were incubated overnight at 37° C. in a humidified incubator to allow for cells to become confluent. On the morning of the experiment, TNFα (10 μl, 2 ng/ml) was added to each well, which contained 100 μl of medium. Compounds were diluted in DMSO-containing medium (2.5% DMSO) to give a compound concentration of 100 and 300 μM. Compounds were added to wells so that final concentrations were 10 and 30 μM. DMSO-containing medium alone was added to zero concentration control wells. All samples were measured in quadruplicate (4 wells per treatment).
After incubation with compound, medium was removed and cells were probed with either non-specific IgG or specific mouse antibodies against E-selectin, ICAM or VCAM (BD Biosciences—0.1 μg in 100 μL buffered saline with 10% heat-inactivated human serum). Adhesion molecule expression was detected by addition of sheep anti-mouse antibody/horseradish peroxidase conjugate. […] Optical density was measured at 405 nm with an ELISA reader (Titertek Multiscan, Flow Laboratories). […]
For orientation: An ELISA detects its analyte on a solid surface through an enzyme-linked reagent.

As for `CC(c1ccccc1)N1COc2cc3c(cc2C1)C=C(c1ccc(O)cc1)CO3` (stereo not shown) [Compound 2, 4-(3-(1-Phenylethyl)-2,3,4,8-tetrahydrochromeno[6,7-e][1,3]oxazin-7-yl)phenol], the “effect on B cells” value with B cells was “markedly and significantly immunosuppressive”. For the same compound, the “mean change of LPS-induced TXB2 synthesis” value in assay [1] is recorded as “greatest inhibition”. Also, the “mean change of LPS-induced PGE2 synthesis” value in assay [2] is recorded as “greatest inhibition”.
Consider `Oc1cccc(C2=Cc3ccc(O)cc3OC2)c1` [Compound 37-DHE, 3′,7-dihydroxy-isoflav-3-ene, reference compound], for which the “effect on TNFα-induced VCAM expression” value with VCAM is given as “less pronounced”.
